Experimental data taken from article PMC11380953, “Multivalent, calcium-independent binding of surfactant protein A and D to sulfated glycosaminoglycans of the alveolar epithelial glycocalyx” (American Journal of Physiology - Lung Cellular and …, 2024).
Like-named read-outs stand apart in the source and are kept apart here.

Columns and labels:
[1] = biological target: T1, rhSP-D (human recombinant SP-D) (Homo sapiens, UniProt P35247); test: Microscale thermophoresis (MST) binding to rhSP-D; set-up: Response Amplitude: unit not given here
T1 construct: host or cells: CHO cells
T1 sequence (P35247 21-375): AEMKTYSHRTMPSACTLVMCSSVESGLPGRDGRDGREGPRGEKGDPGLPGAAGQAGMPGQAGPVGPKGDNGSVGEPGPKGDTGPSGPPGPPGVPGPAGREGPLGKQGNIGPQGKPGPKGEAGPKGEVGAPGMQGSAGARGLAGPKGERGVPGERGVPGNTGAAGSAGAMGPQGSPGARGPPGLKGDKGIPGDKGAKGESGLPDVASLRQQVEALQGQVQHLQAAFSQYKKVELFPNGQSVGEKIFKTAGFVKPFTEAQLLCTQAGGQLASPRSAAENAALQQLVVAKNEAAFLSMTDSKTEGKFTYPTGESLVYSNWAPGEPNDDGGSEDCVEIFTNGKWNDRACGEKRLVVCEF
Experimental: (§1) Human-isolated and recombinant proteins were labeled using the Monolith Protein Labeling Kit RED-NHS according to the manufacturer’s instructions. This kit reagent reacts with lysine residues present in the sequence of the protein, as the dye carries a reactive NHS-ester group. Briefly, as all the proteins were in a Tris buffer solution, the buffer solution was exchanged to a HEPES-based buffer with the A-Column provided in the kit. Then, 10 µM solution of protein was incubated with a threefold excess of dye in 100 µL for 30 min at room temperature protected from light. The labeled protein was separated from the free dye using the B-Column provided in the kit. The concentration of the labeled protein {c(M) = [A205 − (A650 × 0.19)]/[31 × MWprotein]) and the degree of labeling [DOL = A650/(195.000 M^−1cm^−1 × c(M)] were calculated according to the manufacturer’s instruction, measuring absorption at 205 nm (for the protein) and 650 nm (for the dye).
(§2) Thermophoresis is the phenomenon of movement of particles along a temperature gradient. Solvated molecules move from higher to lower temperature. This movement or depletion of molecules from the heat is quantified by the Soret coefficient ST: Chot/Ccold = exp (−STΔT). The depletion of molecules depends on the interface between molecule and solvent. Therefore, thermophoresis monitors changes in size, charge, and solvation entropy of molecules. In this regard, the thermophoresis or movement of a protein is different from a protein-ligand complex ([35]). Microscale or miniaturized thermophoresis allows to monitor molecular interaction in only a few microliters. For this method, the fluorescently labeled protein is mixed with a decreasing concentration of a ligand in 16 glass capillaries. The initial fluorescence is measured (Fcold), then an infrared (IR) laser beam is switched on and focused on the center of the first capillary, where the temperature gradient is created from the center to the walls of the capillary. At the same time, a dichroic mirror allows fluorescence from the labeled protein to be monitored (Fhot). The rate of fluorescence change is related to the amount of protein-ligand complex form, which depends on the ligand concentration, due to changes in size, charge, or hydration shell of the protein-ligand complex. The dissociation constant KD is calculated from the binding curve derived by plotting the normalized fluorescence (FNorm) at a given time after the start of the thermophoresis against the respective ligand concentration ([33], [34], [36]).
(§3) Samples were measured in a Monolith NT.115, using Premium Capillaries (MO-K025) and Monolith Protein labeling kit RED-NHS (MO-L011) all from NanoTemper Technologies (Munich, Germany). Solutions of a 3X concentrated MST buffer (15 mM Tris, 300 mM NaCl, 0.3% Tween 20, 15 mM CaCl2, pH 7.4), sugars (270 mM) or GAG (30 µM) solution, and protein solution (27 nM) were prepared separately. When a different concentration was used, a threefold concentration of the solution was prepared. Afterward, sugars and GAG solutions were diluted 1:2 with water in a series of 16 steps. For the measurement, 3 µL of each prepared component (3 µL MST buffer, 3 µL GAG solution, and 3 µL labeled protein) was mixed, centrifuged shortly to eliminate precipitates, and loaded into a glass capillary. The final concentrations of the sugars were thus between 90 –and 0.00275 mM or GAGs 10 and 0.000305 µM for GAGs, respectively. The 16 capillaries were loaded in the Monolith NT.115 and measurements were performed with a 40% LED power and medium MST power at 25°C.
(§4) Every set of 16 capillaries was prepared in 3–6 replicates (technical replicates) and measured. The replicate measures of every capillary were plotted against concentration and outliers were excluded, using the MO Affinity Analysis 3 v01 software (NanoTemper Technologies, Munich, Germany). […]

[2] = biological target: T2, hSP-A (human SP-A, isolated from BAL of PAP patient) (Homo sapiens, UniProt Q8IWL1+Q8IWL2); test: Microscale thermophoresis (MST) binding to hSP-A; set-up: Response Amplitude: unit not given here; conditions: for binding of hSP-A in the absence or presence of low calcium concentrations: 0 and 2.5 mM calcium (Fig. 3A-C); for Response Amplitude / Kd: hSP-A
T2 construct: Human PAP patient, BAL isolated; from tissue; host or cells: bronchoalveolar lavage fluid of a patient with pulmonary alveolar proteinosis
Experimental: as §1, §2, §3, §4

[3] = biological target: T3, recSP-A1 (human recombinant SP-A1) (Homo sapiens, UniProt Q8IWL2); test: Microscale thermophoresis (MST) binding to recSP-A1; conditions: for Kd: recSP-A1, GAGs from Fig. 2, read-out: Kd (±KD Confidence); for Response Amplitude: recSP-A1, MST, GAGs from Fig. 2
T3 construct: purchased Aviva Systems Biology OPCD07130; host or cells: prokaryotic expression
Experimental: as §1, §2, §3, §4

[4] = biological target: T4, hSP-D (human SP-D, isolated from BAL of PAP patient) (Homo sapiens, UniProt P35247); test: Microscale thermophoresis (MST) binding to hSP-D; conditions: for Kd: GAGs from Fig. 2, read-out: Kd (±KD Confidence); for Response Amplitude: MST, GAGs from Fig. 2
T4 construct: hSP-D; 0.6 µM; Human PAP patient, BAL isolated; from tissue; host or cells: bronchoalveolar lavage fluid of a patient with pulmonary alveolar proteinosis
T4 sequence (P35247 21-375): T1 sequence (P35247 21-375)
Experimental: as §1, §2, §3, §4

[5] = biological target: T5, recSP-A2 (human recombinant SP-A2) (Homo sapiens, UniProt Q8IWL1); test: Microscale thermophoresis (MST) binding to recSP-A2; conditions: for Kd: recSP-A2, GAGs from Fig. 2, read-out: Kd (±KD Confidence); for Response Amplitude: recSP-A2, MST, GAGs from Fig. 2
T5 construct: purchased Aviva Systems Biology OPCD07132; host or cells: prokaryotic expression
Experimental: as §1, §2, §3, §4

[6] = GAGs from Fig. 2, read-out: Kd (±KD Confidence)

T5 sequence (Q8IWL1 21-248): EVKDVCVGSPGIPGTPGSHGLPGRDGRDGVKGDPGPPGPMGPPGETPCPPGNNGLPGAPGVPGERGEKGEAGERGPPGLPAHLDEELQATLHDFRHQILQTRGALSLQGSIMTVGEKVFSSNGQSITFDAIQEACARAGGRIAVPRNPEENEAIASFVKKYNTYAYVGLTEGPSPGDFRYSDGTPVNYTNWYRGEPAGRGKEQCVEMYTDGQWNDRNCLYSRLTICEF
T3 sequence (Q8IWL2 21-248): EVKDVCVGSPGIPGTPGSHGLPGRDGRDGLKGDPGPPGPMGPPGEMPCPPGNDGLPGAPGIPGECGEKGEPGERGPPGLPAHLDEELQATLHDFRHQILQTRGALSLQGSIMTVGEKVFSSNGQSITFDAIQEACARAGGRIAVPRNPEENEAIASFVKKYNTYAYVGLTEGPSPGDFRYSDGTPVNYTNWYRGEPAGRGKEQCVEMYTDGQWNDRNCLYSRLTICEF
T2 sequence (Q8IWL2 21-248): as above
T2 sequence (Q8IWL1 21-248): as the sequence (Q8IWL1 21-248) above

heparan sulfate sodium [HS]
Response Amplitude ([1]; 0 mM Ca^2+): 12.04 | Kd ([1]; 0 mM Ca^2+, read-out: KD): 0.735 µM | Response Amplitude ([1]; 2.5 mM Ca^2+): 33.47 | Kd ([1]; 2.5 mM Ca^2+, read-out: KD): 0.00744 µM | Response Amplitude ([1]; 5 mM Ca^2+): 6.29 | Kd ([1]; 5 mM Ca^2+, read-out: KD): 0.431 µM | Response Amplitude ([1]; 10 mM Ca^2+): 15.22 | Kd ([1]; 10 mM Ca^2+, read-out: KD): 0.000688 µM | Kd [1, 6]: 0.287 µM | Response Amplitude ([1]; MST, GAGs from Fig. 2): 3.55 | binding of hSP-A in the absence or presence of low calcium concentrations ([2]; MST): binds | Response Amplitude ([2]; 0 mM Ca^2+): 3.61 | Kd ([2]; 0 mM Ca^2+, read-out: KD): 0.00322 µM | Response Amplitude ([2]; 2.5 mM Ca^2+): 9.27 | Kd ([2]; 2.5 mM Ca^2+, read-out: KD): 0.000188 µM | Response Amplitude ([2]; 5 mM Ca^2+): 7.51 | Kd ([2]; 5 mM Ca^2+, read-out: KD): 0.00374 µM | Response Amplitude ([2]; 10 mM Ca^2+): 2.79 | Kd ([2]; 10 mM Ca^2+, read-out: KD): 0.375 µM | Kd [2, 6]: 0.0233 µM | Response Amplitude ([2]; MST, GAGs from Fig. 2): 11.92 | Kd [3]: 0.269 µM | Response Amplitude [3]: 15.51 | Kd [4]: 5.64 µM | Response Amplitude [4]: 3.03 | Kd [5]: 0.143 µM | Response Amplitude [5]: 15.59

chondroitin sulfate sodium salt [CS]
Response Amplitude ([1]; 0 mM Ca^2+): 16.10 | Kd ([1]; 0 mM Ca^2+, read-out: KD): 17.6 µM | Response Amplitude ([1]; 2.5 mM Ca^2+): 10.05 | Kd ([1]; 2.5 mM Ca^2+, read-out: KD): 0.152 µM | Response Amplitude ([1]; 5 mM Ca^2+): 10.83 | Kd ([1]; 5 mM Ca^2+, read-out: KD): 0.0971 µM | Response Amplitude ([1]; 10 mM Ca^2+): 21.36 | Kd ([1]; 10 mM Ca^2+, read-out: KD): 0.131 µM | Kd [1, 6]: 0.000808 µM | Response Amplitude ([1]; MST, GAGs from Fig. 2): 23.54 | binding of hSP-A in the absence or presence of low calcium concentrations ([2]; MST): binds | Response Amplitude ([2]; 0 mM Ca^2+): 7.16 | Kd ([2]; 0 mM Ca^2+, read-out: KD): 0.000999 µM | Response Amplitude ([2]; 2.5 mM Ca^2+): 13.45 | Response Amplitude ([2]; 5 mM Ca^2+): 8.07 | Kd ([2]; 5 mM Ca^2+, read-out: KD): 0.00738 µM | Response Amplitude ([2]; 10 mM Ca^2+): 6.89 | Kd ([2]; 10 mM Ca^2+, read-out: KD): 0.00591 µM | Kd [2, 6]: 0.225 µM | Response Amplitude ([2]; MST, GAGs from Fig. 2): 8.37 | Kd [3]: 0.0801 µM | Response Amplitude [3]: 17.02 | Kd [4]: 5.82 µM | Response Amplitude [4]: 3.74 | Kd [5]: 0.0552 µM | Response Amplitude [5]: 31.90

hyaluronic acid sodium salt [HA]
Response Amplitude ([1]; 5 mM Ca^2+): 5.33 | Kd ([1]; 5 mM Ca^2+, read-out: KD): 0.0419 µM | Response Amplitude ([1]; 10 mM Ca^2+): 3.25 | Kd ([1]; 10 mM Ca^2+, read-out: KD): 0.0311 µM | Kd [1, 6]: 0.0221 µM | Response Amplitude ([1]; MST, GAGs from Fig. 2): 9.67 | binding of hSP-A in the absence or presence of low calcium concentrations ([2]; MST): not able to bind | Response Amplitude ([2]; 5 mM Ca^2+): 7.31 | Kd ([2]; 5 mM Ca^2+, read-out: KD): 0.00291 µM | Response Amplitude ([2]; 10 mM Ca^2+): 3.65 | Kd ([2]; 10 mM Ca^2+, read-out: KD): 0.0546 µM | Kd [2, 6]: 0.0122 µM | Response Amplitude ([2]; MST, GAGs from Fig. 2): 12.93 | Kd [3]: 1.01 µM | Response Amplitude [3]: 17.13 | Kd [4]: 2.19 µM | Response Amplitude [4]: 3.45 | Kd [5]: 1.87 µM | Response Amplitude [5]: 19.28
